# Values of other authors as cited in patent US20020077465A1, “ADAM polynucleotides, polypeptides, and antibodies” (priority 2000, published 2002).
# Where a SMILES comes first, the peptide text is derived from it. [ ]: non-standard residue; d: D form. The star is where a group is joined. 4Abz = Nc1ccc(C(=O)O)cc1; NHOH = ON*
# B1: METH1 polypeptides: metalloprotease thrombospondin polypeptides encoded by the human METH1 gene (WO99/37660) (protein, UniProt Q9UHI8 253-967, looked up)
# A disintegrin and …: FVSSHRYVETMLVADQSMAEFHGSGLKHYLLTLFSVAARLYKHPSIRNSVSLVVVKILVIHDEQKGPEVTSNAALTLRNFCNWQKQHNPPSDRDAEHYDTAILFTRQDLCGSQTCDTLGMADVGTVCDPSRSCSVIEDDGLQAAFTTAHELGHVFNMPHDDAKQCASLNGVNQDSHMMASMLSNLDHSQPWSPCSAYMITSFLDNGHGECLMDKPQNPIQLPGDLPGTSYDANRQCQFTFGEDSKHCPDAASTCSTLWCTGTSGGVLVCQTKHFPWADGTSCGEGKWCINGKCVNKTDRKHFDTPFHGSWGMWGPWGDCSRTCGGGVQYTMRECDNPVPKNGGKYCEGKRVRYRSCNLEDCPDNNGKTFREEQCEAHNEFSKASFGSGPAVEWIPKYAGVSPKDRCKLICQAKGIGYFFVLQPKVVDGTPCSPDSTSVCVQGQCVKAGCDRIIDSKKKFDKCGVCGGNGSTCKKISGSVTSAKPGYHDIITIPTGATNIEVKQRNQRGSRNNGSFLAIKAADGTYILNGDYTLSTLEQDIMYKGVVLRYSGSSAALERIRSFSPLKEPLTIQVLTVGNALRPKIKYTYFVKKKKESFNAIPTFSAWVIEEWGECSKSCELGWQRRLVECRDINGQPASECAKEVKPASTRPCADHPCPQWQLGEWSSCSKTCGKGYKKRSLKCLSHDGGVLSHESCDPLKKPKHFIDFCTMAECS
# Tests used:
# [1] = tested on: protease inhibitor-resistant viruses
# [2] = tested on: HIV
# [3] = tested on: AZT/3TC-resistant virus
# [4] = tested on: viruses containing the K103N mutation
# [5] = target: MMP-9 (Homo sapiens, UniProt P14780); details: read-out: IC50 against MMP-9
# MMP-9, sequence (P14780 94-707, species assumed): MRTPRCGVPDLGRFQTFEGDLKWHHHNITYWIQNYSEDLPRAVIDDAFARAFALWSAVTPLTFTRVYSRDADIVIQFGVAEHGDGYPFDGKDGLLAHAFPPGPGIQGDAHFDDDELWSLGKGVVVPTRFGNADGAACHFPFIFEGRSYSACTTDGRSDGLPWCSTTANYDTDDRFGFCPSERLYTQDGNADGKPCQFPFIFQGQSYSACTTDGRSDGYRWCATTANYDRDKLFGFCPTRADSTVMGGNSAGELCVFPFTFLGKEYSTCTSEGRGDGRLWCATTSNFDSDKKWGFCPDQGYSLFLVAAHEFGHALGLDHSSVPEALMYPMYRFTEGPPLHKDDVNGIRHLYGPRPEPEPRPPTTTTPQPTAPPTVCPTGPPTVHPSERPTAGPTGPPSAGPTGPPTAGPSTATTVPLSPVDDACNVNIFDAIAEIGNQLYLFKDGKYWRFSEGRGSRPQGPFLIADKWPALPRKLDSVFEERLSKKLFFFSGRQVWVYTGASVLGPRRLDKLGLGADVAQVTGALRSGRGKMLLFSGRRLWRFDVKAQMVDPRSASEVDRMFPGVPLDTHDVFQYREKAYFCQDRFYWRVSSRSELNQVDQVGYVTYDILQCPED
# [6] = target: MMP-3 (Homo sapiens, UniProt P08254); details: read-out: IC50 against MMP-3
# MMP-3, sequence (P08254 100-477, species assumed): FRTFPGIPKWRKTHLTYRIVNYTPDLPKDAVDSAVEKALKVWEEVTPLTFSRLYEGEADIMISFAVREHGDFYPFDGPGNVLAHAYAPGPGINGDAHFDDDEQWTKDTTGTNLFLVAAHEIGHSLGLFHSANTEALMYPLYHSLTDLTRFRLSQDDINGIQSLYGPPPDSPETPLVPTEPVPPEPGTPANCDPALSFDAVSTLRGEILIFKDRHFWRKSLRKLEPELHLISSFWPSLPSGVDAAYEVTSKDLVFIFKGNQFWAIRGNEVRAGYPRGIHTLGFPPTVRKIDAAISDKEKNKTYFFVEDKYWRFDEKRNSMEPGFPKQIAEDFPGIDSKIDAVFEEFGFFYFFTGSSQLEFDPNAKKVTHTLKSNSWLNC
# [7] = target: T1, MMP-1 (Homo sapiens, UniProt P03956); details: read-out: IC50 against MMP-1
# T1 sequence (P03956 100-469): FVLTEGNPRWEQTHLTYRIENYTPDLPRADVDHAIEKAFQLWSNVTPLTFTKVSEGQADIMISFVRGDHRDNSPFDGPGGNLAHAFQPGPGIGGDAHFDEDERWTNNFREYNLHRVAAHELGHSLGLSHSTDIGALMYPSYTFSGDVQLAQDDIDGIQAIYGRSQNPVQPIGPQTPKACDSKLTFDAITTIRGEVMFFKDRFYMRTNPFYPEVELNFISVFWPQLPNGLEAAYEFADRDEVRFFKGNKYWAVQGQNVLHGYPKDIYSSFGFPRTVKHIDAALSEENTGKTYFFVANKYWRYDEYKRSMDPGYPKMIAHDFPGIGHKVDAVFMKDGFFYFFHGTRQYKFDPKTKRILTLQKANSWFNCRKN
# [8] = target: MMP-8 (Homo sapiens, UniProt P22894); details: read-out: IC50 against MMP-8
# MMP-8, sequence (P22894 101-467, species assumed): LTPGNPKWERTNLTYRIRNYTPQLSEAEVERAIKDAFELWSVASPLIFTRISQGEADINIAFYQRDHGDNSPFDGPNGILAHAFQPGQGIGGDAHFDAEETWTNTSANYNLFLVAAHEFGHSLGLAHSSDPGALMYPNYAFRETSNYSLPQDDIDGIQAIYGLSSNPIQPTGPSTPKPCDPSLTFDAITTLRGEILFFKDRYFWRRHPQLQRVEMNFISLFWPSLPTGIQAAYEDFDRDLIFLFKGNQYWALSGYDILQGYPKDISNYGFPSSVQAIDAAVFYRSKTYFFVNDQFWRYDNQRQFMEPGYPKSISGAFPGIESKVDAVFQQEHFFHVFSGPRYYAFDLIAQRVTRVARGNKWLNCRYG
# [9] = tested on: lamivudine-resistant isolates; details: a substantial proportion of lamivudine-resistant isolates
# [10] = tested on: human metastatic melanoma (M24 cells)
# [11] = tested on: M24 cells; details: murine metastasis model
# [12] = tested on: angiogenesis; details: both in vitro and in vivo
molecule,measurement,setting,value
Cc1ccccc1CNC(=O)[C@H]1N(C(=O)[C@@H](O)[C@H](Cc2ccccc2)NC(=O)c2cccc(O)c2C)CSC1(C)C [AG-1776],in vitro activity against protease inhibitor-resistant viruses,[1],in vitro activity
"Nc1nc(=O)n([C@@H]2CS[C@H](CO)O2)cc1F [COVIRACIL, emtricitabine]",greater activity in vitro than lamivudine (3TC),"[2]; in vitro, relative to lamivudine (3TC)",3- to 10 fold
Nc1nc(=O)n([C@H]2C=C[C@@H](CO)O2)cc1F [D-D4FC],activity against AZT/3TC-resistant virus,[3],activity against AZT/3TC-resistant virus
CC[C@H]1C(=O)Nc2ccc(F)cc2N1C(=O)OC(C)C [GW-420867X],activity against viruses containing the K103N mutation / K103N mutants,[4],active against K103N mutants
same,greater activity than HBY097,[2]; relative to HBY097,25 fold
CC(C)C[C@@H](NC(=O)[C@@H]1CCCN1C(=O)CNC(=O)c1ccc(N)cc1)C(=O)N[C@H](C)C(=O)NO [MMP inhibitor I] (H-[4Abz]GP[dL][dA]-{NHOH}),IC50,[5],30 µM
same,IC50,[6],150 µM
same,IC50,[7],1 µM
same,IC50,[8],1 µM
C[C@H](Sc1nc(N)cc(Cl)n1)c1cc2ccoc2cn1 [PNU-142721],activity against viruses containing the K103N mutation / K103N mutants,[4],active against K103N mutants
same,greater activity than its predecessor delavirdine,[2]; relative to delavirdine,20- to 50 fold
Nc1ccn([C@H]2CO[C@@H](CO)S2)c(=O)n1 [dOTC],activity against lamivudine-resistant isolates,[9],retains activity
contortrostatin,inhibition of M24 cell adhesion to laminin,[10]; laminin,not
same,"inhibition of M24 cell adhesion to type I collagen, vitronectin, and fibronectin","[10]; type I collagen, vitronectin, fibronectin",inhibit
same,inhibition of lung colonization of M24 cells,[11],inhibits
B1,inhibition of angiogenesis,[12],potent inhibitors
